Results as given in publication PMC6154642 (Molecules : A Journal of Synthetic Chemistry and Natural …, 2017).
Read-outs that look alike come from different tables or passages of the source.

Columns and labels:
[1] = tested on: bcl-2 G-quadruplex DNA (bcl-2 G4 DNA) (DNA, G4) CGGGCGCGGGAGGAAGGGGGCGGGAGC; assay: UV-vis absorption titration; conditions: K+ (KCl, concentration not given); Tris-HCl pH 7.2; fixed 20 μM compound (60 μM in Figure 3 legend); intrinsic binding constant
[2] = tested on: A549 cells; assay: Flow cytometric analysis of cell cycle arrest (PI staining); type: cell-based, human; conditions: 20 μM, 24 h, versus control (55.75%)
Method: Cells were seeded in six-well tissue culture plates (1 × 10^5 cells per well), and the cell cycle arrest was analyzed by flow cytometry as previously described. […] The fixed cells were washed with PBS and stained with propidium iodide (PI) for 15 min in the dark, then the cell cycle arrest was analyzed with an Epics XL-MCL flow cytometer (Beckman Coulter, Miami, FL, USA).

[3] = tested on: 5'-FAM-bcl-2-TAMRA-3' (DNA, G4) CGGGCGCGGGAGGAAGGGGGCGGGAGC; assay: FRET melting; conditions: Tris-HCl buffer; 6.0 μM compound (2.4 °C at 3.0 μM); 1 μM DNA (0.2 μM in Figure 4 legend)
[4] = tested on: bcl-2 G4 DNA; assay: Fluorescence quenching of EB + bcl-2 G4 DNA system; type: binding; conditions: [1] = 20.89 μM, [EB] = 16 μM, [DNA] = 2 μM, excitation 350 nm, Tris-HCl KCl buffer pH 7.2
Method: (§1) All reagents were purchased from commercial suppliers and used without further purification. Solvents were dried and purified by conventional methods prior to use. Distilled water was used in all experiments. Bcl-2 G-quadruplex DNA (5′-[…]-3′) and 5′-FAM-bcl-2-TAMRA-3′ were purchased from Sangon Biotech Co., Ltd. (Shanghai, China) Bcl-2 G-quadruplex DNA formed a G-quadruplex conformation as literature by renaturation for 24 h at 4 °C, after denaturation for 5 min at 90 °C [29]. All aqueous solutions were prepared with doubly distilled water. The Tris-HCl buffer consisting of Tris and KCl, and the pH value was adjusted to 7.2 by HCl solution, which was applied to UV titration, Fluorescence emission titrations.
Fluorescence spectroscopy measurements were performed on a RF-5301 fluorescence spectrophotometer using a 1 cm path length quartz cell. Fluorescence quenching of the EB + bcl-2 G4 DNA system can be used for a compound having an affinity to DNA in spite of its binding mode, and only measures the ability of the compound to affect the EB fluorescence intensities in the EB + bcl-2 G4 DNA system. The titration processes were repeated until there was no apparent change in the spectra for at least three titrations, indicating the achievement of the binding saturation.

[5] = tested on: human lung adenocarcinoma A549 cells; assay: MTT assay, growth inhibition of A549 cells; type: cell-based
Method: (§2) Human cancer cell lines, human lung adenocarcinoma A549 cells, human hepatocarcinoma SMMC7721 cells, human colorectal carcinoma SW620 cells and HaCaT cells were purchased from American Type Culture Collection (ATCC, Manassas, VA, USA). All cell lines were maintained in Dulbecco’s Modified Eagle Medium (DMEM) media supplemented with fetal bovine serum (10%), penicillin (100 units/mL), and streptomycin (50 units/mL) at 37 °C in a CO2 incubator (95% relative humidity, 5% CO2).
(§3) Cell viability was confirmed by measuring the ability of cells to transform 3-(4,5-dimethylthia-zol-2-yl)-2,5-diphenyltetrazolium bromide (MTT) to a purple formazan dye. Cells were seeded in 96-well tissue culture plates (3 × 10^3 cells per well) for 24 h. The cells were then incubated with the tested compounds at different concentrations for 72 h. After incubation, 20 µL per well of MTT solution (5 mg/mL in phosphate buffered saline, PBS) was added, followed by incubation for a further 5 h. The medium was aspirated and replaced with 150 µL/well of DMSO to dissolve the formazan salt formed. The colour intensity, which reflects the cell growth condition, was measured at 570 nm using a microplate spectrophotometer (SpectroAmaxTM250, BioTek Instruments, Inc., Winooski, VT, USA).

[6] = tested on: human colorectal carcinoma SW620 cells; assay: MTT assay, growth inhibition of SW620 cells; type: cell-based
Method: as §2, §3

[7] = tested on: human hepatocarcinoma SMMC7721 cells; assay: MTT assay, growth inhibition of SMMC7721 cells; type: cell-based
Method: as §2, §3

[8] = tested on: bcl-2 G-quadruplex DNA (bcl-2 G4 DNA) (DNA, G4) CGGGCGCGGGAGGAAGGGGGCGGGAGC; assay: ethidium bromide displacement fluorescence; conditions: K+ (KCl, concentration not given); Tris-HCl KCl pH 7.2; EB 16 μM, DNA 2 μM; I/I0 0.83 at 20.89 μM compound
[9] = tested on: bcl-2 G4 DNA; assay: FRET melting assay; type: binding
Method: The fluorescent labeled oligonucleotide, bcl-2 G-quadruplex DNA (5′-FAM-[…]-TAMRA-3′, FAM: carboxyfluorescein, TAMRA: 6-carboxy tetramethylrhodamine) used as the FRET probe was diluted in TrisHCl buffer and then annealed by being heated to 90 °C for 5 min, followed by slowly cooling to room temperature. Ds26 duplex DNA ([…]) was competitive binders to evaluate the selective binding ability of 1 with bcl-2 G4 DNA. Fluorescence melting curves were determined with a Bio-RadiQ5 realtime PCR detection system (Bio-Rad, Berkeley, CA, USA), by using a total reaction volume of […], with labeled oligonucleotide (1 μM) and different concentrations of complex in Tris-HCl buffer. A constant temperature was maintained for 30 s prior to each reading to ensure a stable value. Final analysis of the data was carried out by using Origin7.5 (Origin Lab, Northampton, MA, USA).

[10] = tested on: HaCaT cells; assay: MTT assay, normal HaCaT cells; type: cell-based, human; conditions: 72 h; for IC50: normal cells
Method: as §2, §3

[11] = tested on: bcl-2 G-quadruplex DNA; assay: Electronic absorption titration with bcl-2 G-quadruplex DNA; type: binding
Method: as §1
Electronic absorption spectra were recorded on a Shimadzu UV-2550 spectrophotometer using 1 cm path length quartz cuvettes (3 mL). The absorption titration of the target complex in Tris-HCl buffer was performed by using a fixed complex concentration to which increments of the DNA stock solution were added. The concentration of the complex solution was 20 μM and bcl-2 G4 DNA was added by degrees. Complex-DNA solutions were allowed to incubate for 3 min before the absorption spectra were recorded.

Row | Compound | IC50 ([5]; Homo sapiens, A549, 72 h) [µM] | IC50 ([6]; Homo sapiens, SW-620, 72 h) [µM] | IC50 ([7]; Homo sapiens, SMMC-7721, 72 h) [µM] | IC50 ([10]; Homo sapiens, HaCaT) [µM] | other results
1 | O=[N+]([O-])c1cccc(-c2nc3c4cccnc4c4ncccc4c3[nH]2)c1 [Compound 1] | 15 ± 1.01 | 26.5 ± 0.59 | 17.5 ± 1.84 | 27.3 ± 1.49 | Kb [1]: ~ 8.7 × 10^7 M^-1; ratio of G1-phase higher than that of the control [2]: about 12%; ΔTm [3]: ~ 11 °C; relative fluorescence intensity (I/I0) of EB-DNA [4]: about 0.83; binding [8]: weak; ΔTm of bcl-2 G4 DNA ([9]; 3.0 μM compound): about 2.4 °C; ΔTm of bcl-2 G4 DNA ([9]; 6.0 μM compound): about 11 °C; toxicity in normal cells [10]: low toxicity in normal cells; hyperchromism at the IL absorption band ([11]; Tris-HCl buffer pH 7.2, about 273 nm, on addition of bcl-2 G-quadruplex DNA): about 14.1%; bathochromic shift Δλ at the IL absorption band ([11]; Tris-HCl buffer pH 7.2, on addition of bcl-2 G-quadruplex DNA): 2.1 nm
2 | FC(F)(F)c1cccc(-c2nc3c4cccnc4c4ncccc4c3[nH]2)c1 [Compound 2] | 13.8 ± 0.53 | 27.2 ± 0.53 | 12.9 ± 0.51 | 17.5 ± 0.58 | 
3 | Clc1cccc(-c2nc3c4cccnc4c4ncccc4c3[nH]2)c1 [Compound 3] | 14.3 ± 0.21 | 16 ± 0.29 | 12.6 ± 0.35 | 13.4 ± 0.56 | 
4 | Oc1cccc(-c2nc3c4cccnc4c4ncccc4c3[nH]2)c1 [Compound 4] | 3 ± 0.14 | 16.5 ± 0.28 | 24.2 ± 2.28 | 13.9 ± 0.64 | 
5 | N.N.[Cl][Pt][Cl] [cis-platin, reference compound] |  |  |  |  | IC50 ([5]; 72 h): 32 ± 4.66 µM; IC50 ([6]; 72 h): 6.29 ± 0.17 µM; IC50 ([7]; 72 h, read-out: IC50 (μM) SMMC-7721): 11.7 ± 1.45 µM; IC50 [10]: 18.5 ± 1.64 µM
